Source: patent US20240390404A1, “ANTI-HUMAN NOROVIRUS AGENT” (KEIO UNIVERSITY, priority 2018, published 2024)

Key:
[1] = system: human norovirus GII.3 (TCH2004 strain); experiment: Human norovirus proliferation inhibition in 2D organoid after 2fp-fucose treatment, GII.3 strain; assay type: cell-based; conditions: 3 days treatment before infection, days 3 and 6 after infection
Method: Feces of a human norovirus-infected patent contains a large amount of infectious human norovirus. Thus, the feces of a human norovirus-infected patient is suspended in distilled water or the like to a final concentration of about 10%, to thereby prepare a “10% feces suspension.” The 10% feces suspension is about 10-fold diluted with an ENRA medium. The diluted suspension is added to each of the aforementioned wells having the 2D organoid (5 μL/well) and subjected to incubation for about 3 hours, to thereby proliferate human norovirus. As a result of verification, it has been confirmed that human norovirus proliferates to about 100,000 times the initial count through the culture system employing the 2D organoid.
In the Example, there were tested strains of human norovirus obtained from feces of human norovirus infection patients through the aforementioned procedure and stocked before the test. Specifically, three strains belonging to the genetic group 2 (GII) which accounts for 80 to 90% of the infected patients were selected as test targets. The isolated strain lineages included in GII (FIG. 1) were GII. 6 belonging to “Lineage 1,” GII. […]
The effect of 2fp-fucose treatment on proliferation of human norovirus was investigated for each lineage of norovirus. […] 4, and the viral proliferation amount was determined on days 3 and 6 after infection (FIG. 4).

[2] = system: human norovirus GII. 4 strain or GII. 6 strain; experiment: Effect of treatment with 2fp-fucose or 6a-fucose after differentiation, on infection and reinfection (RNA titer by real-time RT-PCR); assay type: cell-based; conditions: fucose analog 200 μM added on day 5, infection on day (5+2), 3 days culturing
Method: (a) The 2D organoid was disseminated to a 96-well plate. After completion of differentiation induction, two fucose analogs (i.e., 2fp-fucose and 6a-fucose) were each added on day 5 to a concentration of 200 μM, to thereby provide addition groups. The results are shown in FIG. 14(a) and FIG. 14(b), respectively. A non-addition group (untreated group) was also provided. Subsequently, the medium was removed from the wells on day (5+2), and the plate was washed. Then, infection with the GII. 4 strain or the GII. 6 strain was performed.
After the infection treatment, the human norovirus remaining in the medium was removed together with the medium, and the plate was washed thrice with a new medium. After washing, the aforementioned active ingredients were each added to the new medium to a concentration of 200 μM (addition groups), and no addition was performed with respect to the untreated (i.e., non-addition) group. Culturing was performed for 3 days. A portion (10 μL) of the medium was sampled from each well, and the samples were centrifuged at 10,000 g for 10 minutes, to thereby remove cell precipitates. The amount of human norovirus genomic RNA in the supernatant (1 μL) was determined through real-time RT-PCR.
In the test system, the effect of the anti-norovirus agent of the present invention provided after human norovirus infection was estimated on the basis of the following study. Specifically, among the fucose analog-treated 2D organoid cells, the living cells on growth day 3 (i.e., most of them were not infected with human norovirus, by virtue of the effect of the fucose analog) were subjected to a secondary infection operation (i.e., reinfection). The effect of the fucose analog on the reinfection was investigated.
In a specific procedure, the addition groups were prepared through the same procedure as employed in (a) above. The primarily infected cells were cultured in the presence of the fucose analog (200 μM) for 3 days, and the medium was removed from each culture system. After completion of washing, the cells were infected again with human norovirus, and then the virus was removed together with the medium. After completion of the next washing, a medium containing the fucose analog (200 μM) (represented by Reinf+2f-fuc or Reinf+6a-fuc), or a fucose analog-free medium (represented by Reinf−2f-fuc or Reinf−6a-fuc) was added thereto, and culturing was performed for further 3 days. Similar to the above case, the amount of human norovirus released to the supernatant was determined as an RNA titer. In the graphs, the two bars on the right side correspond to (Reinf+2f-fuc and Reinf+6a-fuc) or (Reinf−2f-fuc and Reinf−6a-fuc).

CC(=O)OC1O[C@@H](C)[C@@H](OC(C)=O)[C@@H](OC(C)=O)[C@@H]1F (stereo partly drawn) [2fp-fucose, (3S,4R,5R,6S)-3-fluoro-6-methyltetrahydro-2H-pyran-2,4,5-triyl triacetate]
concentration of complete viral proliferation inhibition [1]: ≥ 40 µM
rise in RNA titer (proliferation of human norovirus) in the addition group [2]: no rise in RNA titer
rise in RNA titer of the untreated group with respect to the administration system [2]: ≥ 10 fold
